Tested on: neuronal progenitor cells derived from murine ES cells
Assay: Differentiation of neuronal progenitor cells into GABAergic neurons in differentiation media containing Ara-C
Assay type: cell-based
Procedure: The expanded neuronal progenitor cells were differentiated by culturing the cells in a differentiation media containing Neurobasal A medium (Gibco), FCS (10-20%) (HYCLONE), and B27 supplement (2-10%) (Gibco), but no β-FGF. Additionally, the differentiation media contained factors to enhance GABAergic neuron yield, preferably Ara-C (Sigma Chemical Co. USA). […] After 3 days of culture in the differentiation media containing Ara-C, the cells were grown in the same media without Ara-C for 8, 12, or 16 days. When the neuronal progenitor cells were cultured in differentiation media containing Ara-C for 3 days, and the cells were then grown in differentiation media without Ara-C for 16 days, at least about 60% of the neuronal progenitor cells differentiated into GABAergic neurons (FIG. 6).
The differentiated neuronal cell types generated according to the present disclosure were evaluated both by the overall morphology of the cells, as well as the phenotypes identified by immunoflourescence. […]
The cells were then incubated overnight at 4° C. with a primary antibody (antibody dilution was made in 1% BSA). […] The chamber slides were observed under fluorescence microscope to evaluate the immunopositive cells in the different stages of differentiation. […]

## cytosine β-d-Arabino furanoside [Ara-C]
Ara-C 20 ug/ml in differentiation media
  percentage of GABAergic neurons in the neuronal population derived from murine ES cells: increased the percentage of GABAergic neurons
Differentiation media containing Ara-C for 3 days, then without Ara-C for 16 days (FIG. 6)
  neuronal progenitor cells differentiated into GABAergic neurons: at least 60%

Reference: patent publication US7820439B2, “In vitro generation of GABAergic neurons from pluripotent stem cells” (Reliance Life Sciences PVT Ltd., priority 2003, dated 2010)
